Laboratory results from patent publication US20050113296A1, “Methods for identifying antimicrobial agents, the agents identified therewith and methods of using same” (priority 2001, published 2005).

Molecular target: T1, E. coli yfhC polypeptide (Escherichia coli, UniProt P68398)
T1 construct: made in house; negative controls used a pBAD-derived vector
Test: yfhC polypeptide deamination of a defined substrate, inosine monitored by HPLC of the digest
Format: biochemical
Details: 2 μg yfhC polypeptide (cell lysate), 20 μg stem loop or 8 μg tRNA^Arg2, 50 μl, 30 min
Procedure: The experimental protocol consisted of two steps. First an in vitro reaction was conducted using a defined yfhC substrate and the yfhC polypeptide supplied as a lysate from an over-producing strain of bacteria. The reactions were then digested enzymatically to mononucleotides with a mixture of three enzymes (nuclease P1, snake venom phosphodiesterase and alkaline phosphatase and the resultant digest analyzed by HPLC to monitor for the appearance of inosine (the product of the yfhC polypeptide deamination reaction).
In this experiment, a series of reactions were run with a synthetic RNA corresponding to the following anticodon stem loop 17-mer of E. coli tRNA^Arg2, in both the linear and folded form (the anticodon is underlined):
All reactions were carried out with the indicated amounts of yfhC substrate and yfhC polypeptide (in the form of a cell lysate) in a final volume of 50 μl. For experiments employing refolded yfhC substrate, the substrate was first boiled and slowly cooled in refolding buffer (30 mM HEPES, pH 7.9, 150 mM NaCl, 10 mM Mg Cl2) prior to adding to the reaction mixture. […] The pellets were resuspended in 50 μl H2O, digested with a mixture of nuclease P1, snake venom phosphodiesterase 1 and alkaline phosphatase (all enzymes in excess) and analyzed by HPLC (Develosil C-30 column, 2 mm×250 mm; Nomura Chemical, Japan). […]

T1 sequence (P68398 whole entry): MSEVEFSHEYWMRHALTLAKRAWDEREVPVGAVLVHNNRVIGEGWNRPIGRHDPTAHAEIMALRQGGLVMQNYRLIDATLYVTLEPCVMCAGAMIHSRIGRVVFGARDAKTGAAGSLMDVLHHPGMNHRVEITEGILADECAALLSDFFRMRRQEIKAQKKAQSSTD

stem loop: synthetic RNA 17-mer corresponding to the anticodon stem loop of E. coli tRNA^Arg2, linear and refolded; yfhC substrate (CNCGGCNACGAACCGAG; RNA, backbone, methylation of C and the base at N not given here; n positions are unspecified nucleotides, further chemistry not fully specified)
activity as yfhC substrate (inosine peak in HPLC elution profile): greatest-activity
